Experimental findings from US20220288143A1, “PHARMACEUTICAL COMPOSITION FOR TREATING CANCER, COMPRISING VACCINIA VIRUS AND GRANULOPOIESIS INHIBITOR AS ACTIVE INGREDIENTS” (priority 2019, published 2022) are described below.

Structures are written as SMILES.

In assay [1] the test system is neutrophils. The class given is in vivo, mouse. The note with it: Renca mice; day 8; compared with negative control group (saline); hydroxyurea 30 mg/kg i.p.
The test system of assay [2] is neutrophils. Briefly: Neutrophil count (CBC), Renca-transplanted mice, lenalidomide or hydroxyurea (Exp. Ex. 17). The class given is in vivo, mouse. Particulars: day 5, 30 mg/kg i.p. daily, compared with group administered saline. On the procedure:
Balb/c mice (female, 8-week-old) purchased from Orient Bio (Busan, Korea) were subjected to a one-week acclimatization period, and then allografted with Renca cancer cell line (Korea Cell Line Bank) at 5×10^6 cells. After another one-week acclimatization period, the mice were divided into 3 groups (n=3) and administered intraperitoneally with saline, hydroxyurea (30 mg/kg), and lenalidomide (30 mg/kg), respectively, daily from 1 day before the administration of the oncolytic virus to day 4 after the administration.
As a result of performing a complete blood count (CBC) by sacrificing the mice in each group on day 5 after administering the oncolytic virus, it was confirmed that the neutrophil count of the mice in the group administered with lenalidomide was reduced as compared with the group administered with saline, except for one outlier mouse.

For the molecule `NC(=O)NO` [hydroxyurea], the “absolute neutrophil count (ANC)” value with neutrophils [1] is “decreased”. For the same molecule, the neutrophil count entry in the assay with neutrophils [2] was “significantly lower”.

Regarding `Nc1cccc2c1CN(C1CCC(=O)NC1=O)C2=O` (stereo not drawn) [lenalidomide], the neutrophil count entry in the assay on neutrophils [2] is reported as “reduced”.
